In US8338598B2, “Herbicidal pyrido[2,3-B]pyrazines and their use as herbicides” (Syngenta Limited, priority 2008, dated 2012):

What was measured:
Assay type in all cases: in vivo
[1] = tested on: Stellaria media; experiment: Example B1 herbicidal action, post-emergence, seed trays in climatic chamber; conditions: 1000 g/ha, evaluated after 9 days, 10=total damage to plant, 0=no damage to plant
Method: (§1) Seeds of a variety of test species were sown in sterilised standard soil in seed trays each having 96 cells. After cultivation for 8 to 9 days cultivation (post-emergence) under controlled conditions in a climatic chamber (cultivation at 23/17° C., day/night; 13 hours light; 50-60% humidity), the plants were treated with an aqueous spray solution of 1000 mg/l of the active ingredient dissolved in 10% DMSO (dimethyl sulfoxide, CAS RN 67-68-5) as a solvent, equivalent to 1000 g/ha. The plants were grown in the climatic chamber after application at (24/19° C., day/night; 13 hours light; 50-60% humidity) and watered twice daily. After 9 days until the test was evaluated (10=total damage to plant, 0=no damage to plant)

[2] = tested on: Solanum nigrum; experiment: as above; conditions: 1000 g/ha, evaluated after 9 days, 10=total damage to plant, 0=no damage to plant
Method: as §1

[3] = tested on: Nasturtium officinale; experiment: as above; conditions: 1000 g/ha, evaluated after 9 days, 10=total damage to plant, 0=no damage to plant
Method: as §1

[4] = tested on: Amaranthus retroflexus; experiment: as above; conditions: 1000 g/ha, evaluated after 9 days, 10=total damage to plant, 0=no damage to plant
Method: as §1

[5] = tested on: Ipomea hederaceae; experiment: Example B2 herbicidal action, pre-emergence, pots in glasshouse; conditions: evaluated after 13 days, 10=total damage to plant, 0=no damage to plant
Method: (§2) Seeds of a variety of test species were sown in standard soil in pots. After cultivation for one day (pre-emergence) or after 8 days cultivation (post-emergence) under controlled conditions in a glasshouse (at 24/16° C., day/night; 14 hours light; 65% humidity), the plants were sprayed with an aqueous spray solution derived from the formulation of the technical active ingredient in acetone/water (50:50) solution containing 0.5% Tween 20 (polyoxyethelyene sorbitan monolaurate, CAS RN 9005-64-5). The test plants were then grown in a glasshouse under controlled conditions in a glasshouse (at 24/16° C., day/night; 14 hours light; 65% humidity) and watered twice daily. After 13 days, the test was evaluated (10=total damage to plant; 0=no damage to plant).

[6] = tested on: Solanum nigrum; experiment: as above; conditions: evaluated after 13 days, 10=total damage to plant, 0=no damage to plant
Method: as §2

[7] = tested on: Setaria faberi; experiment: as above; conditions: evaluated after 13 days, 10=total damage to plant, 0=no damage to plant
Method: as §2

[8] = tested on: Echinochloa crus-galli; experiment: as above; conditions: evaluated after 13 days, 10=total damage to plant, 0=no damage to plant
Method: as §2

[9] = tested on: Amaranthus retroflexus; experiment: as above; conditions: evaluated after 13 days, 10=total damage to plant, 0=no damage to plant
Method: as §2

[10] = tested on: Ipomea hederaceae; experiment: Example B2 herbicidal action, post-emergence, pots in glasshouse; conditions: evaluated after 13 days, 10=total damage to plant, 0=no damage to plant
Method: as §2

[11] = tested on: Solanum nigrum; experiment: as above; conditions: evaluated after 13 days, 10=total damage to plant, 0=no damage to plant
Method: as §2

[12] = tested on: Setaria faberi; experiment: as above; conditions: evaluated after 13 days, 10=total damage to plant, 0=no damage to plant
Method: as §2

[13] = tested on: Echinochloa crus-galli; experiment: as above; conditions: evaluated after 13 days, 10=total damage to plant, 0=no damage to plant
Method: as §2

[14] = tested on: Amaranthus retroflexus; experiment: as above; conditions: evaluated after 13 days, 10=total damage to plant, 0=no damage to plant
Method: as §2

| SMILES | STEME, damage to plant [1] | SOLNI, damage to plant [2] | NAAOF, damage to plant [3] | AMARE, damage to plant [4] | IPOHE, damage to plant ([5]; 1000 g/ha) | SOLNI, damage to plant ([6]; 1000 g/ha) | SETFA, damage to plant ([7]; 1000 g/ha) | ECHCG, damage to plant ([8]; 1000 g/ha) | AMARE, damage to plant ([9]; 1000 g/ha) | IPOHE, damage to plant ([10]; 1000 g/ha) | SOLNI, damage to plant ([11]; 1000 g/ha) | SETFA, damage to plant ([12]; 1000 g/ha) | ECHCG, damage to plant ([13]; 1000 g/ha) | AMARE, damage to plant ([14]; 1000 g/ha) | further results |
| --- | --- | --- | --- | --- | --- | --- | --- | --- | --- | --- | --- | --- | --- | --- | --- |
| O=c1[nH]c2nccnc2c(O)c1-c1cc(Cl)sc1Cl [Compound B12] | 0 | 0 | 0 | 6 |  |  |  |  |  |  |  |  |  |  |  |
| CCOC(=O)Oc1c(-c2ncc(Cl)cc2Cl)c(=O)n(C)c2nccnc12 [Compound A2, Carbonic acid 7-(3,5-dichloro-pyrid-2-yl)-5-methyl-6-oxo-5,6-dihydro-pyrido-[2,3-b]pyrazin-8-yl ester ethyl ester] | 5 | 0 | 5 | 0 |  |  |  |  |  |  |  |  |  |  |  |
| Cc1cc(-c2c(OC(=O)C(C)C)c3nccnc3[nH]c2=O)n2nc(C)cc2n1 [Compound C4] | 0 | 2 | 0 | 0 |  |  |  |  |  |  |  |  |  |  |  |
| CC(C)C(=O)Oc1c(-c2c(C(F)(F)F)nn(C)c2OC(F)F)c(=O)n(CC(F)F)c2nccnc12 [Compound B24, isobutyric acid 7-(5-difluoromethoxy-1-methyl-3-trifluoromethyl-1H-pyrazol-4-yl)-5-(2,2-difluoro-ethyl)-6-oxo-5,6-dihydro-pyrido[2,3-b]pyrazin-8-yl ester] |  |  |  |  | 5 | 8 | 7 | 8 | 10 | 8 | 10 | 8 | 8 | 9 |  |
| CCn1c(=O)c(-c2sc(Cl)nc2C)c(OC(=O)C(C)(C)C)c2nccnc21 [Compound B4] | 2 | 3 | 8 | 0 |  |  |  |  |  |  |  |  |  |  |  |
| O=c1c(-c2cnc(Cl)cc2Cl)c(O)c2nccnc2n1CC(F)F [Compound A19, 7-(4,6-Dichloro-pyrid-3-yl)-5-(2,2-difluoro-ethyl)-8-hydroxy-5H-pyrido[2,3-b]pyrazin-6-one] |  |  |  |  | 1 | 0 | 0 | 5 | 7 | 8 | 10 | 4 | 6 | 10 |  |
| Cc1nc(Cl)sc1-c1c(OC(=O)C(C)(C)C)c2nccnc2n(C)c1=O [Compound B3] | 2 | 0 | 6 | 0 |  |  |  |  |  |  |  |  |  |  |  |
| CC(C)C(=O)Oc1c(-c2ccc(C(F)(F)F)nc2Cl)c(=O)n(CC(F)F)c2nccnc12 [Compound A30] |  |  |  |  |  |  |  |  |  |  |  |  |  |  | IPOHE, damage to plant ([5]; 250 g/ha): 0; SOLNI, damage to plant ([6]; 250 g/ha): 1; SETFA, damage to plant ([7]; 250 g/ha): 0; ECHCG, damage to plant ([8]; 250 g/ha): 3; AMARE, damage to plant ([9]; 250 g/ha): 1; IPOHE, damage to plant ([10]; 250 g/ha): 6; SOLNI, damage to plant ([11]; 250 g/ha): 6; SETFA, damage to plant ([12]; 250 g/ha): 4; ECHCG, damage to plant ([13]; 250 g/ha): 1; AMARE, damage to plant ([14]; 250 g/ha): 9 |
| CC(C)(C)C(=O)Oc1c(-c2ccc(Cl)nc2Cl)c(=O)n(CC(F)F)c2nccnc12 [Compound A16, 2,2-dimethyl-propionic acid 7-(2,6-dichloro-pyrid-3-yl)-5-(2,2-difluoro-ethyl)-6-oxo-5,6-dihydro-pyrido[2,3-b]pyrazin-8-yl ester] |  |  |  |  | 2 | 5 | 0 | 2 | 0 | 7 | 9 | 6 | 6 | 10 |  |
| CC(C)(C)C(=O)Oc1c(-c2ccc(Cl)nc2Cl)c(=O)[nH]c2nccnc12 [Compound A14, 2,2-dimethyl-propionic acid 7-(2,6-dichloro-pyrid-3-yl)-6-oxo-5,6-dihydro-pyrido[2,3-b]pyrazin-8-yl ester] |  |  |  |  | 0 | 0 | 2 | 4 | 0 | 4 | 7 | 7 | 6 | 5 |  |
| Cc1noc(-c2c(O)c3nccnc3n(C)c2=O)n1 [Compound B5, 8-hydroxy-5-methyl-7-(3-methyl-1,2,4-oxadiazol-5-yl)-5H-pyrido[2,3-b]pyrazin-6-one] | 0 | 0 | 0 | 3 |  |  |  |  |  |  |  |  |  |  |  |
| CC(C)C(=O)Oc1c(-c2cc(C(F)(F)F)no2)c(=O)n(C)c2nccnc12 [Compound B8, isobutyric acid 5-methyl-6-oxo-7-(3-trifluoromethyl-isoxazol-5-yl)-5,6-dihydro-pyrido[2,3-b]pyrazin-8-yl ester] | 0 | 2 | 2 | 0 |  |  |  |  |  |  |  |  |  |  |  |
| O=c1[nH]c2nccnc2c(O)c1-c1sc(Cl)nc1C(F)(F)F [Compound B11] | 5 | 2 | 5 | 3 |  |  |  |  |  |  |  |  |  |  |  |
| O=c1c(-c2cc(Cl)ncc2Cl)c(O)c2nccnc2n1CC(F)F [Compound A21, 7-(2,5-Dichloro-pyrid-4-yl)-5-(2,2-difluoro-ethyl)-8-hydroxy-5H-pyrido[2,3-b]pyrazin-6-one] |  |  |  |  | 0 | 0 | 2 | 0 | 2 | 7 | 8 | 7 | 7 | 9 |  |
| CC(C)(C)C(=O)Oc1c(-c2cnc(Cl)cc2Cl)c(=O)n(CC(F)F)c2nccnc12 [Compound A20, 2,2-Dimethyl-propionic acid 7-(4,6-dichloro-pyrid-3-yl)-5-(2,2-difluoro-ethyl)-6-oxo-5,6-dihydro-pyrido[2,3-b]pyrazin-8-yl ester] |  |  |  |  |  |  |  |  |  |  |  |  |  |  | IPOHE, damage to plant ([5]; 250 g/ha): 0; SOLNI, damage to plant ([6]; 250 g/ha): 1; SETFA, damage to plant ([7]; 250 g/ha): 0; ECHCG, damage to plant ([8]; 250 g/ha): 3; AMARE, damage to plant ([9]; 250 g/ha): 1; IPOHE, damage to plant ([10]; 250 g/ha): 10; SOLNI, damage to plant ([11]; 250 g/ha): 10; SETFA, damage to plant ([12]; 250 g/ha): 2; ECHCG, damage to plant ([13]; 250 g/ha): 7; AMARE, damage to plant ([14]; 250 g/ha): 10 |
| O=c1c(-c2c(Cl)cncc2Cl)c(O)c2nccnc2n1CC(F)F [Compound A12, 7-(3,5-Dichloro-pyrid-4-yl)-5-(2,2-difluoro-ethyl)-8-hydroxy-5H-pyrido[2,3-b]pyrazin-6-one] |  |  |  |  | 5 | 2 | 4 | 6 | 4 | 9 | 10 | 8 | 8 | 9 |  |
| Cn1nc(C(F)(F)F)c(-c2c(O)c3nccnc3n(CC(F)F)c2=O)c1OC(F)F [Compound B25, 7-(5-difluoromethoxy-1-methyl-3-trifluoromethyl-1H-pyrazol-4-yl)-5-(2,2-difluoro-ethyl)-8-hydroxy-5H-pyrido[2,3-b]pyrazin-6-one] |  |  |  |  | 6 | 7 | 8 | 8 | 10 | 8 | 10 | 8 | 8 | 8 |  |
| CC(C)(C)C(=O)Oc1c(-c2c(Cl)cncc2Cl)c(=O)n(CC(F)F)c2nccnc12 [Compound A11, 2,2-Dimethyl-propionic acid 7-(3,5-dichloro-pyrid-4-yl)-5-(2,2-difluoro-ethyl)-6-oxo-5,6-dihydro-pyrido[2,3-b]pyrazin-8-yl ester] |  |  |  |  | 5 | 8 | 7 | 8 | 8 | 8 | 8 | 8 | 8 | 9 |  |
